# In US20250032530A1, “USE OF AURANOFIN AS AN INHIBITOR OF ATYPICAL PROTEIN KINASE C FOR TREATMENT OF NEURODEGENERATIVE DISORDERS” (UNIVERSITY OF SOUTH FLORIDA, priority 2021, published 2025):
# Where two headings read alike, the source gives them in different places.
# Key:
# recombinant PKC-ι/λ [1] = target: T1, recombinant PKC-ι/λ (Homo sapiens, UniProt P41743); experiment: Inhibition of recombinant PKC-ι/λ; type: biochemical; details: Example 2
# T1 sequence (P41743 1-596): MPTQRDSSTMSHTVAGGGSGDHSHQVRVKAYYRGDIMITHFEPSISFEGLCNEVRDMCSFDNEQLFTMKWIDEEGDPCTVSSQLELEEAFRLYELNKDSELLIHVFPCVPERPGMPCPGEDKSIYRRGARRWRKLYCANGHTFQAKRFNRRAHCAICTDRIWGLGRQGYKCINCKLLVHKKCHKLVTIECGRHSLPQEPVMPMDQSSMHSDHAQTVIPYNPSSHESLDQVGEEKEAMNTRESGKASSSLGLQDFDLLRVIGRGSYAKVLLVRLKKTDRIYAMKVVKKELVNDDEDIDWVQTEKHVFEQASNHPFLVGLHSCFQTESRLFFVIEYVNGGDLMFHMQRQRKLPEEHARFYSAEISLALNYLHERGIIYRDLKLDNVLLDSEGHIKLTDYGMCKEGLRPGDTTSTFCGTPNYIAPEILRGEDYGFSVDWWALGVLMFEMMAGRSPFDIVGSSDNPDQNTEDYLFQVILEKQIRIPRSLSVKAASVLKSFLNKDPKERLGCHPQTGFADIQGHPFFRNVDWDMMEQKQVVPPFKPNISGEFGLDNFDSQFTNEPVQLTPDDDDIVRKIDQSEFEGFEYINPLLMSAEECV
# Experimental: 1H-imidazole-4-carboxamide,-5-amino-1-[2,3-dihydroxy-4-[(hydroxyl)methyl]cyclopentyl-[1R-(1a,2b,3b,4a)] […] (ICAPP).
# aPKC Inhibitors. We identified by HTS compounds that target the substrate-binding site of aPKCs and potently (IC50s10-30 nM) inhibit recombinant PIP3-dependent aPKCs, but not DAG-dependent PKCs. Three compounds have been studied in detail: (a) 1H-imidazole-4-carboxamide, 5-amino-1-[2,3-dihydroxy-4-[(phosphono-oxy)methyl]cyclopentyl-[1R-(1a,2b,3b,4a)] […] Thus, these agents can reduce brain aPKC activity, indirectly at lower doses by inhibiting liver aPKC and correcting hyperinsulinemia in insulin-resistant states, and, at higher doses, by acting directly on brain PKC-λ/ι.
# NFκB = experiment: Insulin-induced NFκB activity in LA1-5s neuronal cells; type: cell-based, human; details: 200 nM insulin, 24 hours; 1 μM ACPD, increasing concentrations of auranofin
# Excerpt: (§1) Cell lysates were subjected to Western analyses for phosphorylated/activated forms of aPKC, NFκB and Akt. Representative blots of indicated proteins are shown in upper bands. […] Bargrams show Mean±SEM of 3-4 determinations. Asterisks indicate P<0.05; comparison of designated group versus the uninhibited, insulin-treated group (ANOVA).
# (§2) LA1-5s neuronal cells were originally obtained from non-catecholamine-producing neuroblastoma of a person and are commercially available from the European Collection of Authenticated Cell Cultures. Incubation conditions were as described.
# (§3) As described, western analyses were conducted with rabbit antisera, using: anti-aPKC [recognizes a C-terminal sequence in all aPKCs (Santa Cruz Biotechnologies, Santa Cruz, CA, USA)]; anti-phospho-threonine (thr)-560/555-PKC-ζ/λ/ι [recognizes a phosphopeptide sequence present in all aPKCs and indicates activation (Invitrogen, Carlsbad, CA, USA)]; anti-phospho-serine (ser)-473-Akt [recognizes a phosphopeptide sequence at 60 kDa present in all Akt's-1/2/3 and indicates activation (Cell Signaling Technologies, Danvers, MA, USA)]; anti-4 kDa-AP1-40/42 (Cell Signaling Technologies, Danvers, MA, USA); anti-mouse-70 kDa-BACE1 and anti-human-70 kDa-BACE1 (ThermoFisher); and anti-phospho-threonine (thr)-231-tau (Gene Tex, Irvine, CA, USA). […]
# BACE1 = BACE1 levels in LA1-5s neuronal cells treated with insulin; type: cell-based, human
# Experimental: Values of BACE1 are Mean±SEM of 4 values. Asterisks indicate P<0.05 for comparison of designated group versus the untreated control group (ANOVA).
# as §2
# As described, western analyses were conducted with rabbit antisera, using: anti-aPKC [recognizes a C-terminal sequence in all aPKCs (Santa Cruz Biotechnologies, Santa Cruz, CA, USA)]; anti-phospho-threonine (thr)-560/555-PKC-ζ/λ/ι [recognizes a phosphopeptide sequence present in all aPKCs and indicates activation (Invitrogen, Carlsbad, CA, USA)]; anti-phospho-serine (ser)-473-Akt [recognizes a phosphopeptide sequence at 60 kDa present in all Akt's-1/2/3 and indicates activation (Cell Signaling Technologies, Danvers, MA, USA)]; anti-4 kDa-AP1-40/42 (Cell Signaling Technologies, Danvers, MA, USA); anti-mouse-70 kDa-BACE1 and anti-human-70 kDa-BACE1 (ThermoFisher); and anti-phospho-threonine (thr)-231-tau (Gene Tex, Irvine, CA, USA). Samples from all experimental groups within each study were compared on the same blots and routinely checked with loading controls. All comparisons in histograms were made relative to the mean value of the basal control group, i.e., wild-type mice consuming standard low-fat mouse chow, untreated with insulin or aPKC inhibitors, and having normal levels of aPKCs and other cellular proteins.
# Akt = experiment: Insulin-induced Akt activation in LA1-5s neuronal cells; type: cell-based, human; details: 200 nM insulin, 24 hours
# Excerpt: as §1, §2, §3
# recombinant PKC-ι/λ [2] = target: T1, recombinant PKC-ι/λ; details: cited from earlier work
# recombinant PKC-ζ = target: T2, recombinant PKC-ζ (Homo sapiens, UniProt Q05513); details: cited from earlier work
# T2 sequence (Q05513 1-592): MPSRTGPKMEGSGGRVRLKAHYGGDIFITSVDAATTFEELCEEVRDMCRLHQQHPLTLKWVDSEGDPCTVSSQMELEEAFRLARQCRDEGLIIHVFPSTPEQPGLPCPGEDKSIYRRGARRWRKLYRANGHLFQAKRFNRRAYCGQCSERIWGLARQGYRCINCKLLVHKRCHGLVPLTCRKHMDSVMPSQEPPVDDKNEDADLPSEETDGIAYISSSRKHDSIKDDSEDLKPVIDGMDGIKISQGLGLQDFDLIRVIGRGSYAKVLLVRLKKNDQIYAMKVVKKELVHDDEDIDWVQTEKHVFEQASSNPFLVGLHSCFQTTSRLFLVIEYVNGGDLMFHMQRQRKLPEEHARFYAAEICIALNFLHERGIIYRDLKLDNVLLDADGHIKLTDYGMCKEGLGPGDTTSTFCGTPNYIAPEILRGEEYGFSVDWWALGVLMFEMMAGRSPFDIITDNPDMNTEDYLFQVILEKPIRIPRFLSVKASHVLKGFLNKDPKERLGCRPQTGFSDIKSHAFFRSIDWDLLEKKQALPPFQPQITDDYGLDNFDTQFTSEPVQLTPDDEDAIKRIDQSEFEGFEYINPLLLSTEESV
# [3] = tested on: recombinant forms of PKC-α, PKC-β, PKC-δ, PKCε, or PKC-θ; details: cited from earlier work
# [4] = tested on: aPKC, Akt2, AMP-activated kinase (AMPK), FoxO1; details: isolated human hepatocytes; cited from earlier work
# aPKC = details: cited from earlier work
# [5] = tested on: PKC-λ/ι activity, BACE1 activity, Aβ1-40/42; details: LA1-5s neuronal cells, previously reported; cited from earlier work
# PKCι and PKCζ = details: cited from earlier work
SMILES,IC50 (recombinant PKC-ι/λ [1]) [µM],insulin-induced increase in NFκB activity (NFκB),"insulin-induced increase in BACE1 levels (BACE1; 200 nM insulin, 24 hours, increasing concentrations of ICAPP)",basal/resting levels of BACE1 (BACE1; at higher levels of inhibitor),insulin-induced Akt activation (Akt),IC50 (recombinant PKC-ι/λ [2]) [µM],IC50 (recombinant PKC-ζ) [µM],"effect on recombinant PKC-α, PKC-β, PKC-δ, PKCε, PKC-θ [3]",FoxO1 phosphorylation/inactivation [4],"inhibition of aPKC, Akt2, AMPK [4]",inhibition of brain aPKC (aPKC; at higher doses),"aPKC inhibition in liver, muscle, adipose tissue (aPKC; intact mice, employed doses)","insulin-induced increases in PKC-λ/ι activity, BACE1 activity and production of Aβ1-40/42 [5]",insulin activation of aPKC (PB1 site) (PKCι and PKCζ)
NC(=O)c1ncn([C@@H]2C[C@H](COP(=O)(O)O)[C@@H](O)[C@H]2O)c1N [ICAPP],0.001 to 0.01,diminished,diminished,reduced basal/resting levels of BACE1,not Akt activation,0.001 to 0.01,0.2 to 0.5,no effect,increase FoxO1 phosphorylation/inactivation,inhibit aPKC but not Akt2 or AMP-activated kinase (AMPK),inhibit brain aPKC,"inhibit aPKC in liver, but not in muscle or adipose tissue",blocked,
O=C(O)CC([S-])C(=O)O.[Au+] (centres unmarked) [aurothiomalate],,,,,,,,,,,,,,inhibit insulin activation of aPKC
